Experimental data as given in PubChem BioAssay (NCI).
Values joined by “and” are separate entries in the source; they are usually repeats but may differ in a detail not shown here. Equal entries are not always repeated.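 Five concentrations, 48 hours, 96-well plates. Abbreviation: GI50, concentration required for 50% inhibition of growth. The concentration for full growth arrest is given as TGI.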

Experiments:
Assay in all cases: NCI anticancer screen, dose series, 48 h
MCF7 breast = tested on: MCF7 breast
MDA-MB-231 breast = tested on: MDA-MB-231 breast
RPMI-8226 leukemia = tested on: RPMI-8226 leukemia
OVCAR-5 ovarian = tested on: OVCAR-5 ovarian
SF-268 CNS = tested on: SF-268 CNS
CAKI-1 renal = tested on: CAKI-1 renal
SF-539 CNS = tested on: SF-539 CNS
K-562 leukemia = tested on: K-562 leukemia
HCT-116 colon = tested on: HCT-116 colon
A549 NSCLC = tested on: A549 NSCLC

Row | SMILES | GI50 (MCF7 breast) | TGI (MCF7 breast) | GI50 (MDA-MB-231 breast) | TGI (MDA-MB-231 breast) | GI50 (RPMI-8226 leukemia) | TGI (RPMI-8226 leukemia) | GI50 (OVCAR-5 ovarian) | GI50 (SF-268 CNS) | TGI (SF-268 CNS) | GI50 (CAKI-1 renal) | TGI (CAKI-1 renal) | GI50 (SF-539 CNS) | TGI (SF-539 CNS) | GI50 (K-562 leukemia) | TGI (K-562 leukemia) | GI50 (HCT-116 colon) | TGI (HCT-116 colon) | GI50 (A549 NSCLC) | TGI (A549 NSCLC) | TGI (OVCAR-5 ovarian)
1 | CC(=O)OC1C(OC/C2=C/C3[C@@H](C(C)C)CC=C(C)[C@@H]3CC(OC(=O)/C=C/c3cn(C)cn3)[C@]3(C)C=C[C@@]2(O)O3)OCC(O)C1O (some centres undefined) | 14.6 nM | > 50000 nM | 421 nM | > 50000 nM | 24.4 nM | > 50000 nM | 20.7 nM | 33.6 nM | > 50000 nM | 196 nM | > 13200 nM | 12.3 nM | 59.8 nM | 15.7 nM | > 50000 nM | 11 nM | > 50000 nM | 20.6 nM | > 50000 nM | 
2 | COc1cc(OC)c(-c2oc3ccccc3c(=O)c2O)c(OC)c1 |  | > 100000 nM |  | > 100000 nM |  | > 100000 nM |  |  | > 100000 nM |  | > 40500 nM |  | > 100000 nM |  | > 100000 nM |  | > 100000 nM |  | > 100000 nM | > 100000 nM
3 | CC(CCC/C=C/CCCN(C)C(=N)N)CC(C)C1OC(=O)C(C)C(O)/C=C/C(C)C(O)C(C)C(O)C(C)C(O)CCCC(O)CC2(O)OC(CC(OC(=O)CC(=O)O)CC(O)CC(O)C(C)C(O)/C=C/C=C/C1C)CC(O)C2O (centres undefined) | 1.79 µM and 3.53 µg/mL | 3.67 µM and 14 µg/mL | 5.59 µM and 8.55 µg/mL | 19 µM and 19.9 µg/mL | 2.71 µM and 9.09 µg/mL | 10.5 µM and 28 µg/mL | 14.4 µM and 13.5 µg/mL | 2.76 µM and 6.7 µg/mL | 7.24 µM and 16.5 µg/mL | 2.01 µM and 7.96 µg/mL | 5.24 µM and 17.7 µg/mL | 1.73 µM and 2.67 µg/mL | 3.64 µM and 12.5 µg/mL | 3.13 µM and 10.4 µg/mL | 7.16 µM and 75 µg/mL | 2.52 µM and 9.15 µg/mL | 6.13 µM and 24.4 µg/mL | 2.45 µM and 4.42 µg/mL | 5.63 µM and 16.8 µg/mL | 29.9 µM and 26.1 µg/mL
